Source: patent US8324179B2, “Nucleoside analogs for antiviral treatment” (Gilead Sciences, Inc., priority 2007, dated 2012)

Test system: Replicon cells
Assay: HCV EC50 determination, replicon luciferase assay
Format: cell-based
Conditions: 3 days, luciferase activity, read-out: Replicon inhibiting potency EC50
Experimental: Replicon cells were seeded in 96-well plates at a density of 8×10^3 cells per well in 100 μL of culture medium, excluding Geneticin. Compound was serially diluted in 100% DMSO and then added to the cells at a 1:200 dilution, achieving a final concentration of 0.5% DMSO and a total volume of 200 μL. Plates were incubated at 37° C. for 3 days, after which culture medium was removed and cells were lysed in lysis buffer provided by Promega's luciferase assay system. Following the manufacturer's instruction, 100 μL of luciferase substrate was added to the lysed cells and luciferase activity was measured in a TopCount luminometer.

Row | Compound | EC50 [µM]
1 | CCCCOC(=O)[C@H](C)NP(=O)(/C=C/[C@H]1O[C@@H](n2cnc3c(N)ncnc32)[C@@H](F)[C@@H]1O)N[C@@H](C)C(=O)OCCCC [Compound 56.6] | < 10
2 | CCCCOC(=O)[C@H](C)NP(=O)(/C=C/[C@@H]1C[C@@H](O)[C@H](n2cnc3c(=O)[nH]c(N)nc32)O1)N[C@@H](C)C(=O)OCCCC [Compound 9.11] | < 10
3 | Nc1ncnc2c1cnn2[C@@H]1O[C@H](/C=C/P(=O)(O)O)[C@@H](O)[C@H]1O [Compound 25.3, (E)-2-((2R,3S,4R,5R)-5-(4-amino-1H-pyrazolo[3,4-d]pyrimidin-1-yl)-3.4-dihydroxy-tetrahydrofuran-2-yl)vinylphosphonic acid] | > 100
4 | {2-[5-(4-Amino-2-oxo-2H-pyridin-1-yl)-4-hydroxy-tetrahydro-furan-2-yl]-vinyl}-phosphonic acid [Compound 11.2] | > 100

Same assay, conditions: Hepatitis C virus, 72 h, 3 days, luciferase activity, read-out: Replicon inhibiting potency EC50

Row | Compound | EC50 [µM]
5 | CCCCOC(=O)[C@H](C)NP(=O)(/C=C/[C@@H]1C[C@@H](O)[C@H](n2cnc(C(N)=O)n2)O1)N[C@@H](C)C(=O)OCCCC [Compound 54.3] | > 100
6 | Nc1ncnc2c1nnn2[C@@H]1O[C@H](/C=C/P(=O)(O)O)C[C@H]1O [Compound 38.2, (E)-2-((2S,4R,5R)-5-(7-amino-3H-[1,2,3]triazolo[4,5-d]pyrimidin-3-yl)-4-hydroxy-tetrahydrofuran-2-yl)vinylphosphonic acid] | > 100
7 | Nc1ncnc2c1nnn2C1OC(CCP(=O)(O)O)C(O)C1O (stereo not shown) [Compound 6.7, {2-[5-(7-Amino-[1,2,3]triazolo[4,5-d]pyrimidin-3-yl)-3,4-dihydroxy-tetrahydro-furan-2-yl]-ethyl}-phosphonic acid] | > 100
8 | Nc1nc2c(nnn2C2OC(C=CP(=O)(O)O)CC2O)c(=O)[nH]1 (stereo not shown) [Compound 10.2, {2-[5-(5-Amino-7-oxo-6,7-dihydro-[1,2,3]triazolo[4,5-d]pyrimidin-3-yl)-4-hydroxy-tetrahydro-furan-2-yl]-vinyl}-phosphonic acid] | 10 to 100
9 | COC1C(O)C(C=CP(=O)(O)O)OC1n1ccc(N)nc1=O (stereo not shown) [Compound 17.5, {2-[5-(4-Amino-2-oxo-2H-pyrimidin-1-yl)-3-hydroxy-4-methoxy-tetrahydro-furan-2-yl]-vinyl}-phosphonic acid] | > 100
10 | CCCCOC(=O)[C@H](C)NP(=O)(/C=C/[C@H]1O[C@@H](n2cnc3c(N)ncnc32)[C@H](F)[C@@H]1O)N[C@@H](C)C(=O)OCCCC [Compound 55.8] | 10 to 100
11 | CNc1nc(N)nc2c1ncn2C1OC(C=CP(=O)(O)O)CC1O (stereo not shown) [Compound 46.3, {2-[5-(2-Amino-6-methylamino-purin-9-yl)-4-hydroxy-tetrahydro-furan-2-yl]-vinyl}-phosphonic acid] | > 100
12 | CCCCOC(=O)[C@H](C)NP(=O)(/C=C/[C@@]1(N=[N+]=[N-])O[C@@H](n2ccc(=O)[nH]c2=O)[C@H](O)[C@@H]1O)N[C@@H](C)C(=O)OCCCC [Compound 48.7] | 10 to 100
13 | C[C@@]1(O)[C@H](O)[C@@H](/C=C/P(=O)(O)O)O[C@H]1n1nnc2c(N)ncnc21 [Compound 27.8, (E)-2-((2R,3R,4R,5R)-5-(7-amino-3H-[1,2,3]triazolo[4,5-d]pyrimidin-3-yl)-3,4-dihydroxy-4-methyl-tetrahydrofuran-2-yl)vinylphosphonic acid] | > 100
14 | CC(=O)Nc1nc2c(ncn2C2OC(C=CP(=O)(O)O)CC2OC(=O)c2ccccc2)c(=O)[nH]1 (stereo not shown) [Compound 9.10, Benzoic acid 2-(2-acetylamino-6-oxo-1,6-dihydro-purin-9-yl)-5-(2-phosphono-vinyl)-tetrahydro-furan-3-yl ester] | 10 to 100
15 | O=c1ccn([C@@H]2O[C@H](/C=C/P(=O)(O)O)C[C@H]2O)c(=O)[nH]1 [Compound 50.6] | > 100
16 | COC1C(O)C(C=CP(=O)(O)O)OC1n1cnc2c(=O)[nH]c(N)nc21 (stereo not shown) [Compound 16.9, {2-[5-(2-Amino-6-oxo-1,6-dihydro-purin-9-yl)-3-hydroxy-4-methoxy-tetrahydro-furan-2-yl]-vinyl}-phosphonic acid] | > 100
17 | Nc1ncnc2c1ncn2[C@@H]1O[C@H](/C=C/P(=O)(O)O)[C@@H](O)[C@H]1O [Compound 24.4, (E)-2-((2R,3S,4R,5R)-5-(6-amino-9H-purin-9-yl)-3,4-dihydroxy-tetrahydrofuran-2-yl)vinylphosphonic acid] | > 100
18 | Nc1nc2c(ncn2C2OC(C=CP(=O)(O)O)C(O)C2O)c(=O)[nH]1 (stereo not shown) [Compound 18.8, {2-[5-(2-Amino-6-oxo-1,6-dihydro-purin-9-yl)-3,4-dihydroxy-tetrahydro-furan-2-yl]-vinyl}-phosphonic acid] | 10 to 100
19 | CNc1ncnc2c1ncn2C1OC(C=CP(=O)(O)O)CC1O (stereo not shown) [Compound 47.2, {2-[4-Hydroxy-5-(6-methylamino-purin-9-yl)-tetrahydro-furan-2-yl]-vinyl}-phosphonic acid] | > 100
20 | Nc1ncnc2c1ncn2C1OC(C=CP(=O)(O)O)CC1O (stereo not shown) [Compound 12.2, {2-[5-(6-Amino-purin-9-yl)-4-hydroxy-tetrahydro-furan-2-yl]-vinyl}-phosphonic acid] | < 10
21 | CCCCOC(=O)[C@H](C)NP(=O)(/C=C/[C@@H]1C[C@@H](O)[C@H](n2nnc3c(=O)[nH]c(N)nc32)O1)N[C@@H](C)C(=O)OCCCC [Compound 10.3] | > 100
22 | Nc1nc(N)c2ncn(C3OC(C=CP(=O)(O)O)CC3O)c2n1 (stereo not shown) [Compound 13.2, {2-[5-(2,6-Diamino-purin-9-yl)-4-hydroxy-tetrahydro-furan-2-yl]-vinyl}-phosphonic acid] | > 100

Biological target: T1, HCV Δ21 NS5b polymerase (Hepatitis C virus genotype 1b, UniProt P26663)
T1 construct: 75 nM HCV Δ21 NS5b polymerase
T1 sequence (P26663 2420-2989, stated change not applied): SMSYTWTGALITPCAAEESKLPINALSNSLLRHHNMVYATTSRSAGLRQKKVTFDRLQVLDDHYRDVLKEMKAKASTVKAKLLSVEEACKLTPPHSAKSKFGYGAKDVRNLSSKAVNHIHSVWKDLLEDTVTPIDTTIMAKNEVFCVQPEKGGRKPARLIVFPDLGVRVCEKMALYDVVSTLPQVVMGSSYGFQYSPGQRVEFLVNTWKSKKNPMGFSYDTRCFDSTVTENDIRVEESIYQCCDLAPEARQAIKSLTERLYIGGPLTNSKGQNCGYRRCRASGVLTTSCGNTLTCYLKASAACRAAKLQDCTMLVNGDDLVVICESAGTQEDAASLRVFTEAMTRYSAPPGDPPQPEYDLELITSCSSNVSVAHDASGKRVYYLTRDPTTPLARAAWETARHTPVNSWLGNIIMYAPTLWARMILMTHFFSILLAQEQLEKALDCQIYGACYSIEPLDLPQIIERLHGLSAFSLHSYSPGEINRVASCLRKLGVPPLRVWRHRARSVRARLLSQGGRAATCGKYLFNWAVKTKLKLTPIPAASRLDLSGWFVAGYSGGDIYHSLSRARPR
Assay: NS5b polymerase assay (HCV IC50 determination)
Format: biochemical
Conditions: not given
Experimental: Assay Protocol: NS5b polymerase assay (40 μL) was assembled by adding 28 μL polymerase mixture (final concentration: 50 mM Tris-HCl at pH 7.5, 10 mM KCL, 5 mM MgCl2, 1 mM DTT, 10 mM EDTA, 4 ng/μL of RNA template, and 75 nM HCV Δ21 NS5b polymerase) to assay plates followed by 4 μL of compound dilution. The polymerase and compound were pre-incubated at 35° C. for 10 minute before the addition of 8 μL of nucleotide substrate mixture (33P-α-labeled competing nucleotide at KM and 0.5 mM of the remaining three nucleotides). The assay plates were covered and incubated at 35° C. for 90 min. Reactions were then filtered through 96-well DEAE-81 filter plates via vacuum. The filter plates were then washed under vacuum with multiple volumes of 0.125 M NaHPO4, water, and ethanol to remove unincorporated label. Plates were then counted on TopCount to assess the level of product synthesis over background controls. The IC50 value was determined using Prism fitting program.

Row | Compound | IC50 [µM]
23 | CN(NS(C)(=O)=O)c1ncnc2c1ncn2[C@@H]1O[C@H](/C=C/P(=O)(O)OP(=O)(O)OP(=O)(O)O)C[C@H]1O [Compound 60.5] | > 100
24 | Nc1ncnc2c1ncn2[C@@H]1O[C@H](/C=C/P(=O)(O)OP(=O)(O)OP(=O)(O)O)[C@@H](O)[C@H]1F [Compound 55.7] | < 10
25 | Nc1ncnc2c1nnn2[C@@H]1O[C@H](/C=C/P(=O)(O)OP(=O)(O)OP(=O)(O)O)[C@@H](O)[C@H]1O [Compound 6.8] | > 100
26 | Nc1nc2c(nnn2[C@@H]2O[C@H](/C=C/P(=O)(O)OP(=O)(O)OP(=O)(O)O)C[C@H]2O)c(=O)[nH]1 [Compound 10.4] | > 100
27 | Nc1ncnc2c1ncn2[C@@H]1O[C@H](/C=C/P(=O)(O)OP(=O)(O)OP(=O)(O)O)[C@@H](O)[C@@H]1F [Compound 56.5] | > 100
28 | O=c1ccn([C@@H]2O[C@H](/C=C/P(=O)(O)OP(=O)(O)OP(=O)(O)O)[C@@H](O)[C@H]2F)c(=O)[nH]1 [Compound 58.7] | 10 to 100
29 | Nc1nc(N)c2nnn(C3OC(C=CP(=O)(O)OP(=O)(O)OP(=O)(O)O)CC3O)c2n1 (stereo not shown) [Compound 53.4] | > 100
30 | COC1C(O)C(C=CP(=O)(O)OP(=O)(O)OP(=O)(O)O)OC1n1cnc2c(=O)[nH]c(N)nc21 (stereo not shown) [Compound 16.95] | 10 to 100
31 | O=C1C=Cc2nn([C@@H]3O[C@H](/C=C/P(=O)(O)OP(=O)(O)OP(=O)(O)O)C[C@H]3O)c3ncnc(c23)N1 [Compound 52.6] | < 10
32 | Nc1ncnc2c1nnn2C1OC(C=CP(=O)(O)OP(=O)(O)OP(=O)(O)O)CC1O (stereo not shown) [Compound 38.4] | 10 to 100
33 | Nc1nc2c(ncn2[C@@H]2O[C@H](/C=C/P(=O)(O)OP(=O)(O)OP(=O)(O)O)C[C@H]2O)c(=O)[nH]1 [Compound 9.12] | > 100
34 | NC(=O)c1ncn([C@@H]2O[C@H](/C=C/P(=O)(O)OP(=O)(O)OP(=O)(O)O)C[C@H]2O)n1 [Compound 54.4] | > 100
